Assay results: PubChem BioAssay (NCI)
Where “and” joins values, the source holds several entries; their conditions need not be identical. Equal entries are not always repeated.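 These data come from cells grown in 96-well plates and exposed to compound for 48 hours at five concentrations. At the GI50, growth is halved. The concentration for full growth arrest is given as TGI.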

Assays:
Experiment in all cases: NCI tumour cell line growth inhibition, 48 h
[1] = test system: SK-OV-3 ovarian
[2] = test system: SF-539 CNS
[3] = test system: RXF 393 renal
[4] = test system: SK-MEL-5 melanoma
[5] = test system: CCRF-CEM leukemia
[6] = test system: HL-60(TB) leukemia
[7] = test system: MDA-MB-435
[8] = test system: U251 CNS
[9] = test system: SK-MEL-28 melanoma
[10] = test system: SW-620 colon

Row | SMILES | GI50 [1] | TGI [1] [µM] | GI50 [2] | TGI [2] | GI50 [3] | TGI [3] | GI50 [4] | TGI [4] | GI50 [5] | TGI [5] [µM] | GI50 [6] | TGI [6] | GI50 [7] | TGI [7] | GI50 [8] | TGI [8] | GI50 [9] | TGI [9] | GI50 [10] | TGI [10]
1 | O=C1NC(=O)C(N2CCc3ccccc32)=C1c1ccc(Cl)cc1 | > 25 µM | > 25 | > 25 µM | > 25 µM | > 25 µM | > 25 µM | > 23.2 µM | > 25 µM | > 25 µM | > 25 | 24.3 µM | > 25 µM | > 25 µM | > 25 µM | > 25 µM | > 25 µM | > 25 µM | > 25 µM | > 25 µM | > 25 µM
2 | CCN1CCN(CC(=O)Nc2nc3ccc(NCc4ccc(C)cc4)cc3s2)CC1 | 4.12 µM | 12.4 | 1.5 µM | 4.3 µM | 1.99 µM | 8.5 µM | 0.975 µM | 2.01 µM | 1.49 µM | 6.3 | 1.05 µM | 2.25 µM | 1.05 µM | 2.3 µM | 2.77 µM | 9.14 µM | 0.929 µM | 1.92 µM | 1.6 µM | 6.07 µM
3 | Cc1cc2oc(=O)c(Cl)c(Cl)c2c(C)c1Cl |  | 27.6 |  | 21.4 µM |  | 6.03 µM |  | 19.2 µM |  | 7.04 |  | 4.93 µM |  | 15.3 µM |  | 8.45 µM |  | 28.9 µM |  | 2.94 µM
4 | O=C1/C(=C\c2ccc([N+](=O)[O-])cc2)CS(=O)(=O)C/C1=C/c1ccc([N+](=O)[O-])cc1 |  | 15.5 | 0.136 µM | 0.579 µM and 0.363 µM |  | 1.45 µM | 0.4 µM | 3.03 µM | 0.0128 µM | 0.133 | 0.0138 µM | 0.145 µM | 0.208 µM | 0.808 µM and 1.5 µM | 0.0731 µM | 0.483 µM and 2 µM | 0.188 µM | 0.444 µM and 3.59 µM | 0.0889 µM | 0.481 µM and 2.74 µM
5 | Cc1ccc(NC(C(=O)c2ccccc2)c2ccccc2)cc1 (configuration not stated) | 15.8 µM | 58.2 | 13 µM | > 100 µM | 17.6 µM | 46.3 µM | 2.84 µM | 14.5 µM | 3.98 µM | 51.1 | 2.59 µM | 6.57 µM | 2.63 µM | 12.7 µM | 4.24 µM | 25.1 µM | 8.07 µM | 37.3 µM | 3.47 µM | > 100 µM
6 | O=C(NCCSSCCNC(=O)/C(Cc1ccc(O)c(Br)c1)=N/O)/C(Cc1ccc(O)c(Br)c1)=N/O |  | 3.32 |  | 8.84 µM |  | 2 µM |  | 2.33 µM |  | > 18.3 |  | > 22.6 µM |  | > 24.9 µM |  | 4.53 µM |  | 16.3 µM |  | 14.3 µM
7 | Cc1ccc(C2NC(=S)N3C(c4ccc(C)cc4)NC(=S)N23)cc1 (configuration not stated) | 4.77 µM | 15.5 | 4.12 µM | 13.7 µM | 3.27 µM | 14.1 µM | 3.88 µM | 14.3 µM | 2.46 µM | 10.2 | 1.88 µM | 5.67 µM | 0.666 µM | 4.14 µM | 3.91 µM | 14.3 µM | 11.5 µM | 24.2 µM | 3.78 µM | 17.9 µM
8 | O=C(NC1CCNCC1)c1[nH]ncc1NC(=O)c1c(Cl)cccc1Cl | 0.784 µM and 1.42 µM | > 100 | 0.271 µM and 0.257 µM | 0.7 µM and 0.666 µM | 0.236 µM and 0.202 µM | 0.635 µM and 0.464 µM | 2.44 µM and 0.961 µM | 7.67 µM and 5.53 µM | 0.331 µM and 0.335 µM | > 100 | 0.305 µM and 0.285 µM | 1.09 µM and 1.64 µM | 0.37 µM and 0.335 µM | 1.72 µM and 1.58 µM | 0.328 µM and 0.329 µM | > 59.7 µM | 0.43 µM and 0.568 µM | 2.32 µM and 3.96 µM | 0.365 µM and 0.425 µM | > 10 µM
9 | O=Cc1c[nH]c2ccc(-c3csc4ccccc34)cc12 | 5.34 µM | > 100 | 2.41 µM | 7.52 µM | 1.58 µM | 5.13 µM | 3.31 µM | > 100 µM | 2.64 µM | 10.6 | 2.48 µM | 8.38 µM | 1.24 µM | 3.66 µM | 3.64 µM | 21 µM | 5.49 µM | > 100 µM | 4.31 µM | > 100 µM
10 | NC(Cn1ccc(=O)c(O)c1)C(=O)O (configuration not stated) |  | > 100 |  | > 100 µM |  | > 100 µM |  | > 100 µM |  | > 100 |  | > 100 µM |  | > 100 µM |  | > 100 µM |  | > 100 µM |  | > 100 µM
11 | CS(=O)/C(C#N)=C\C=C\c1cccc(Cl)c1 (configuration not stated) | 10.6 µM | 26.4 | 1.79 µM | 7.5 µM | 2 µM | 3.9 µM | 1.87 µM | 3.96 µM | 2.34 µM | 18.7 | 2.38 µM | 7.61 µM | 2.34 µM | 10.6 µM | 1.71 µM | 7.81 µM | 2.68 µM | 9.78 µM | 2.71 µM | 11.6 µM
12 | O=C(CCCCCNC1=CC(=O)c2ccccc2C1=O)NCCC[Te]c1ccccc1 | 0.487 µM | 1.85 | 0.618 µM | 2.15 µM | 1.54 µM | 4.11 µM | 1.37 µM | 2.67 µM | 0.251 µM | 0.774 | 0.315 µM | 4.4 µM | 1.92 µM | 4.67 µM | 0.356 µM | 1.87 µM | 1.21 µM | 3.34 µM |  | 
13 | CCCCCCCCn1ccc2cc(NC(=O)Cn3cc(CN4CCC(C)CC4)nn3)ccc21 | 1.9 µM | 3.7 | 1.7 µM | 3.08 µM | 1.5 µM | 3.08 µM | 1.72 µM | 3.09 µM | 2.5 µM | 9.71 | 1.77 µM | 3.58 µM | 1.65 µM | 3.08 µM | 1.7 µM | 3.15 µM |  |  | 1.77 µM | 3.46 µM
14 | COc1cc(-c2nccc3[nH]c(-c4cccc5[nH]ccc45)nc23)cc(OC)c1OC | < 0.01 µM | 14.8 | < 0.01 µM | 0.0139 µM |  |  | < 0.01 µM | 0.0108 µM | < 0.01 µM | 12 | < 0.01 µM | < 0.01 µM | < 0.01 µM | < 0.01 µM | < 0.01 µM | 13 µM | 0.0347 µM | 15.3 µM | < 0.01 µM | 5.13 µM
